Laboratory results from paper PMC9636434, “Discovery of small molecule agonists of the Relaxin Family Peptide Receptor 2” (Communications Biology, 2022).
Values joined by “and” are separate entries in the source; they are usually repeats but may differ in a detail not shown here. Equal values may be shown once.

Tests used:
HCO cells = experiment: CellTiter-Glo cytotoxicity assay in HCO cells; type: cell-based, human; settings: experiments (1)-(3)
Description: Fig. 4 RXFP2 agonists induce mineralization of primary human osteoblasts and are non-cytotoxic. a Mineral hydroxyapatite fluorescent quantification after 14-day treatment in HCO cells. Results were normalized to control DMSO as 100% mineralization. b HCO and c HAVSMC toxicity after 24-h treatment with RXFP2 agonists, normalized to DMSO treatment as 0% toxicity. Results are expressed as mean ± SEM of 3 independent experiments. *p < 0.05, *** p < 0.001 vs. DMSO using One-way ANOVA.
Cell viability studies were undertaken to identify potential cytotoxic effects of the RXFP2 agonists. HCO cells and human aortic vascular smooth muscle cells (HAVSMC) were treated for 24 h. […] At 8.3 µM and below, no toxicity was found in HCO cells and toxicity was below 20% in HAVSMC cells for all three compounds (Fig. 4b, c).
The ATP CellTiter-Glo Luminescent Cell Viability Assay (Promega, Madison, WI) was used to measure cytotoxicity induced by the compounds in HCO cells and human aortic vascular smooth muscle cells (HAVSMC) (ATCC, Manassas, VA). HCO and HAVSMC cells were seeded in 96-well plates at 3000 and 7000 cells per well respectively. Cells were incubated overnight, treated with compound or DMSO vehicle and incubated for 24 h at 37 °C, 5% CO2. […] Plates were shaken for 2 min, incubated at room temperature for 10 min and the luminescent signal was read on a CLARIOstar plate reader.

[1] = tested on: trabecular bone of lumbar vertebrae; experiment: Micro-CT of trabecular bone in L3 vertebral body after 8-week oral treatment; type: in vivo, mouse; settings: 10 mg/kg PO 3 times per week, 8 weeks, individual mice
RXFP2 [2] = molecular target: T1, RXFP2 (Homo sapiens, UniProt Q8WXD0); experiment: Confirmatory CRE-luciferase reporter assay in HEK-CRE-Luc-RXFP2 cells; type: cell-based; design: FLAG (N); expressed in transfected cells; settings: for % Eff (CRE-luciferase): experiments (1)-(3)
Protocol: A quantitative high-throughput screening (HTS) of more than 80 K compounds of the NCATS/NIH diversity collection was performed at four concentrations in HEK293T cells stably expressing human RXFP2 to identify candidate agonists. A homogenous time resolved fluorescence (HTRF) assay was used to directly detect compound-induced cAMP accumulation, with forskolin or human recombinant INSL3 serving as positive controls. […] Selected compounds with reasonable activity in dose response were also tested in a confirmatory orthogonal screening using a cAMP response element (CRE) driven luciferase reporter assay in HEK-CRE-Luc-RXFP2 cells, and in a counter-screen with cells transfected with human relaxin/insulin-like family peptide receptor 1 (RXFP1). Finally, we performed an extensive structure activity relationship campaign (SAR) to increase both the agonist efficacy and potency of the lead series. […] A confirmatory CRE-luciferase cAMP screen was used to eliminate any potential false positives due to assay detection artifacts (Supplementary Fig. 1a).
HEK293T-CRE-Luc cells express luciferase under the control of the cAMP response element (CRE), which allows for indirect measurement of intracellular cAMP accumulation. HEK293T-CRE-Luc cells were stably transfected with human RXFP2 (HEK-CRE-Luc-RXFP2) or transiently transfected as above with mouse Rxfp2 (HEK-CRE-Luc-Rxfp2). HEK-CRE-Luc-RXFP2 and HEK-CRE-Luc-Rxfp2 cells were seeded at 15,000 and 30,000 cells per well, respectively, in 96-well plates using serum-free DMEM medium and incubated overnight at 37 °C, 5% CO2. After 18 h, cells were treated with a titration of compound, a titration of INSL3, 5 μM forskolin or DMSO vehicle. After treatment, cells were incubated for 3 h at 37 °C, 5% CO2. Plates were then allowed to equilibrate for 30 min at room temperature and an equal volume of substrate (Amplite Luciferase Reporter Gene Assay Kit, AAT Bioquest, Sunnyvale, CA) was added to each well. Plates were incubated for 40 min at room temperature protected from light and the luciferase output was read on a CLARIOstar plate reader.
Supplementary Fig. 1: Compounds activate both human and mouse RXFP2 receptors. a Confirmatory CRE-Luciferase screening of RXFP2 agonists in st a b ly transfected HEK-CRE-Luc-RXFP2 cells. b Activation of mouse RXFP2 receptor by the compounds in transiently transfected HEK293T-CRE-Luc cells. Compound response was normalized to 100 nM INSL3 as 100% efficacy and DMSO vehicle as 0% efficacy.
Results are expressed as mean ± SEM of 3 independent experim ents.
(1 picture or pasted object on this page, not shown here)

RXFP2 [3] = molecular target: T1, RXFP2; experiment: PRESTO-Tango β-arrestin recruitment, RXFP2; type: cell-based; design: host or cells: HTLA (transient); settings: 10 µM compound
Protocol: β-arrestin is an important GPCR adaptor protein that mediates several receptor processes including signaling, desensitization, and trafficking. The PRESTO-Tango GPCRome assay was further used to test specificity and selectivity of lead RXFP2 agonists 6641 and 4337. GPCR-mediated β-arrestin recruitment for a panel of 320 human GPCRs was studied in transiently transfected HTLA cells treated with 10 µM compound. The results for all 320 GPCRs tested are summarized in Supplementary Data 1. […] ADORA1 activation by an agonist results in Gαi protein binding, an inhibition of adenylate cyclase and, therefore, a decrease in the cAMP concentration.
To further investigate possible off-target effects of small molecule agonists of RXFP2 on GPCRs, we performed a PRESTO-Tango assay of 320 GPCRs to detect β-arrestin recruitment to the receptors after treatment with our compounds. […] This might be beneficial in clinical applications, as it potentially reduces the amount of drug needed to induce a biological response for this target, even in cells with low receptor expression. It should be noted also that a PRESTO-Tango assay is not designed to detect inhibitors of β-arrestin recruitment.
The PRESTO-Tango GPCRome assay was used to perform a HTS of related GPCRs to study specificity and selectivity of the RXFP2 agonists by measuring β-arrestin translocation activity. […]

T1 sequence (Q8WXD0 whole entry): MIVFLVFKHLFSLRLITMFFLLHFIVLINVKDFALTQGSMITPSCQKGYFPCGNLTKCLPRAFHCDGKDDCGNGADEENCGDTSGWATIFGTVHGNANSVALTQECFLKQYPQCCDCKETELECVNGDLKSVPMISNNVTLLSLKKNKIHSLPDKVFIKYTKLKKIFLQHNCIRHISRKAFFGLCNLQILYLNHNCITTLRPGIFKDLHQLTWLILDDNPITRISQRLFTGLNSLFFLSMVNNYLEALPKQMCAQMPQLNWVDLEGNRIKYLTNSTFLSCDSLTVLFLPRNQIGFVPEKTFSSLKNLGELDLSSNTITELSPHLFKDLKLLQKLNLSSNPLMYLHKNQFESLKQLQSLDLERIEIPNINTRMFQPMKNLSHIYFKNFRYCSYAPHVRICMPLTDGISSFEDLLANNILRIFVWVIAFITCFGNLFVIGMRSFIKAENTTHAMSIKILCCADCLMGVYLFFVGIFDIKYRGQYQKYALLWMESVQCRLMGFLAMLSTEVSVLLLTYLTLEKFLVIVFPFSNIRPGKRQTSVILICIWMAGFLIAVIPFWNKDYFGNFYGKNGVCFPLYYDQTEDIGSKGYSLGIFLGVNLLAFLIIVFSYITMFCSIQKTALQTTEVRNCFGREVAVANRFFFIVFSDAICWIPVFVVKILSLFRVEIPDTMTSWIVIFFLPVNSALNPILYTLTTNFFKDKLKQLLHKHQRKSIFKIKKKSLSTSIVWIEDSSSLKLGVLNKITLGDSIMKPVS

O=C1Nc2ccc(-c3cc(C(F)(F)F)cc(C(F)(F)F)c3)cc2C(=O)N2CCN(C(=O)COc3ccc(OC(F)(F)F)cc3I)C[C@@H]12 [compound 6641]
% Tox (HCO cells; Log [M] -6.03, 24 h): -11.63% and -7.45% and -4.96% | % Tox (HCO cells; Log [M] -6.51, 24 h): -9.76% and -5.09% and -6.71% | BV/TV (%) [1]: trend toward increased and 21.83% and 22.07% and 25.65% and 21.31% and 23.44% and 26.86% and 22.32% and 23.17% and 21.16% and 25.39% and 23.83% and 22.19% and 23.69% and 23.39% and 21.11% | Conn.D [1]: No changes and 105.367 1/mm^3 and 104.207 1/mm^3 and 139.801 1/mm^3 and 114.117 1/mm^3 and 100.266 1/mm^3 and 110.113 1/mm^3 and 116.566 1/mm^3 and 102.739 1/mm^3 and 105.531 1/mm^3 and 114.364 1/mm^3 and 111.763 1/mm^3 and 100.184 1/mm^3 and 109.218 1/mm^3 and 125.466 1/mm^3 and 120.228 1/mm^3 | Mat.D [1]: No changes and 789.633 VOI-mg HA/ccm and 806.041 VOI-mg HA/ccm and 814.578 VOI-mg HA/ccm and 814.711 VOI-mg HA/ccm and 826.05 VOI-mg HA/ccm and 764.488 VOI-mg HA/ccm and 771.958 VOI-mg HA/ccm and 779.095 VOI-mg HA/ccm and 769.29 VOI-mg HA/ccm and 795.903 VOI-mg HA/ccm and 795.302 VOI-mg HA/ccm and 809.309 VOI-mg HA/ccm and 793.168 VOI-mg HA/ccm and 804.707 VOI-mg HA/ccm and 800.171 VOI-mg HA/ccm | Tb.N [1]: significant increase and 4.0038 mm-1 and 4.0307 mm-1 and 4.3607 mm-1 and 4.399 mm-1 and 4.0225 mm-1 and 4.1566 mm-1 and 4.1337 mm-1 and 4.2031 mm-1 and 4.3359 mm-1 and 3.9986 mm-1 and 4.1625 mm-1 and 3.9653 mm-1 and 4.2022 mm-1 and 4.1463 mm-1 and 4.168 mm-1 | Tb.Sp [1]: decreased and 0.2416 mm and 0.2439 mm and 0.2173 mm and 0.2168 mm and 0.234 mm and 0.2335 mm and 0.2409 mm and 0.2383 mm and 0.2244 mm and 0.2446 mm and 0.2447 mm and 0.2276 mm and 0.235 mm and 0.2349 mm | Tb.Th [1]: significant increase and 0.0544 mm and 0.0558 mm and 0.0561 mm and 0.0524 mm and 0.0567 mm and 0.0611 mm and 0.0571 mm and 0.0582 mm and 0.0525 mm and 0.0589 mm and 0.057 mm and 0.056 mm and 0.0578 mm and 0.0547 mm and 0.0543 mm | agonism of human RXFP2 in CRE-luciferase reporter assay (RXFP2 [2]; HEK-CRE-Luc-RXFP2): full agonist | % Eff (CRE-luciferase) (RXFP2 [2]; Log [M] -4.60, 100 nM INSL3 = 100%, DMSO = 0%): 112.29% and 97.22% and 133.29% | % Eff (CRE-luciferase) (RXFP2 [2]; Log [M] -5.00): 116.16% and 119.1% and 157.5% | % Eff (CRE-luciferase) (RXFP2 [2]; Log [M] -5.78): 114.59% and 98.52% and 126.86% | % Eff (CRE-luciferase) (RXFP2 [2]; Log [M] -6.56): 113.18% and 86.94% and 103.38% | % Eff (CRE-luciferase) (RXFP2 [2]; Log [M] -7.33): 77.02% and 61.6% and 70.55% | % Eff (CRE-luciferase) (RXFP2 [2]; Log [M] -8.11): 44.24% and 30.05% and 30.02% | % Eff (CRE-luciferase) (RXFP2 [2]; Log [M] -8.89): 14.74% and 8.06% and 7.85% | % Eff (CRE-luciferase) (RXFP2 [2]; Log [M] -9.67): 6.98% and 1.71% and 0.6% | RXFP2-mediated β-arrestin recruitment (RXFP2 [3]): not detected
